From the PolyMetriX glass transition set
± gives the standard deviation of the reports.

Going from `*c1ccc(Oc2ccc(-n3c(=O)c4c(Oc5ccc(OCCCC)cc5)c5c(=O)n(*)c(=O)c5c(Oc5ccc(OCCCC)cc5)c4c3=O)cc2)cc1` (repeat unit) to `*c1ccc(Oc2ccccc2Oc2ccc(-n3c(=O)c4cc5c(=O)n(*)c(=O)c5cc4c3=O)cc2)cc1` (repeat unit), the glass transition temperature rises from 269.50 °C to 313.00 °C.

`*C(=O)c1ccc2c(c1)C(=O)N(c1ccc(Sc3ccc(N4C(=O)c5ccc(*)cc5C4=O)cn3)nc1)C2=O` (repeat unit) and `*c1ccc2c(c1)C(=O)N(c1cc(OCCCC)cc(N3C(=O)c4ccc(C(*)(C(F)(F)F)C(F)(F)F)cc4C3=O)c1)C2=O` (repeat unit) are the same in glass transition temperature: 246.00 °C for the first, 246.00 °C for the second.

Compared with `*CC(*)(C)C(=O)OCc1ccc2c(c1)c1ccccc1n2CC` (repeat unit), `*CC(*)(C)C(=O)OCCCCCCc1ccc(/C(C)=C/c2ccc(OC)cc2)cc1` (repeat unit) is lower in glass transition temperature: 136.00 °C for the first, 31.00 °C for the second.

Going from `*CC(*)(C)C(=O)OCC[N+](C)(C)CCCCS(=O)(=O)O` (repeat unit) to `*CCCCCCOC(=O)O*` (repeat unit), the glass transition temperature falls from 261.00 °C to -42.00 °C.

Going from `*/C(=C(\[2H])C([2H])([2H])C(*)([2H])[2H])C([2H])([2H])[2H]` (repeat unit) to `*CCN(*)C(=O)C(C)C` (repeat unit), the glass transition temperature rises from -58.00 °C to 30.00 °C.

First: *Oc1ccc(NC(=O)c2ccc(Oc3ccc(C(C)(C)c4ccc(C(C)(C)c5ccc(Oc6ccc(C(=O)Nc7ccc(Oc8ccc(C(c9ccc(*)cc9)(C(F)(F)F)C(F)(F)F)cc8)cc7)cc6)cc5)cc4)cc3)cc2)cc1 (repeat unit)
Second: *Oc1ccc2ccc(Oc3ccc(C(=O)Nc4ccc(Oc5ccc(C(c6ccc(Oc7ccc(NC(=O)c8ccc(*)cc8)cc7)cc6)(C(F)(F)F)C(F)(F)F)cc5)cc4)cc3)cc2c1 (repeat unit)
The glass transition temperature of the first is higher: 169.00 °C for the first, 163.00 °C for the second.

Going from `*c1ccc(-c2cnc3ccc(-c4ccc5ncc(*)nc5c4)cc3n2)cc1` (repeat unit) to `*c1ccc(-c2nc3cc4nc(-c5ccccc5)c(*)nc4cc3nc2-c2ccccc2)cc1` (repeat unit), the glass transition temperature rises from 376.00 °C to 395.00 °C.

First: *Oc1cccc(Oc2ccc(C(=O)c3ccc(NC(=O)c4cccc(C(=O)Nc5ccc(C(=O)c6ccc(*)cc6)cc5)c4)cc3)cc2)c1 (repeat unit)
Second: *Oc1ccc(S(=O)(=O)c2ccc(Oc3ccc(C(=O)c4cc(I)cc(C(=O)c5ccc(*)cc5)c4)cc3)cc2)cc1 (repeat unit)
The glass transition temperature of the first is higher: 214.00 °C for the first, 203.00 °C for the second.

First: *c1ccc(Oc2cc(C(C)(C)C)c(Oc3ccc(N4C(=O)c5ccc(Oc6ccc7c(c6)C(=O)N(*)C7=O)cc5C4=O)cc3)cc2C(C)(C)C)cc1 (repeat unit)
Second: *c1cccc(C(=O)Nc2ccc(Oc3ccc(C(C)(C)c4ccc(Oc5ccc(NC(=O)c6cccc(N7C(=O)c8ccc(-c9cccc%10c9C(=O)N(*)C%10=O)cc8C7=O)c6)cc5)cc4)cc3)cc2)c1 (repeat unit)
The glass transition temperature of the first is lower: 242.00 °C for the first, 261.00 °C for the second.

Compared with `*C(=O)Nc1cccc(NC(=O)c2ccc(-c3nc4cc(*)ccc4[nH]3)cc2)c1` (repeat unit), `*Nc1ccc(Cc2ccc(NC(=O)c3cc(NC(=O)c4ccccc4)cc(C(*)=O)c3)cc2)cc1` (repeat unit) is lower in glass transition temperature: 325.00 °C for the first, 285.00 °C for the second.

First: *CC(OC(C)=O)C(CCC(C)(O)C=C)C(*)(C)C (repeat unit)
Second: *CC(CO)(CO)CO* (repeat unit)
The glass transition temperature of the first is lower: 85.00 °C for the first, 99.00 °C for the second.

First: *O[Si](Oc1ccc(C2(c3ccc(*)cc3)c3ccccc3-c3ccccc32)cc1)(c1ccccc1)c1ccccc1 (repeat unit)
Second: *=NP(=NP(=NC(=*)Oc1ccccc1)(Oc1ccccc1)Oc1ccccc1)(Oc1ccccc1)Oc1ccccc1 (repeat unit)
The glass transition temperature of the first is higher: 166.00 °C for the first, 18.00 °C for the second.

First: *c1ccc2c(c1)C(=O)N(c1cccc(C(=O)Nc3ccc(NC(=O)c4ccc(NC(=O)c5cccc(N6C(=O)c7ccc(C(*)(C(F)(F)F)C(F)(F)F)cc7C6=O)c5)cc4)cc3)c1)C2=O (repeat unit)
Second: *c1ccc2oc(-c3ccc(C(c4ccc(-c5nc6cc(C(*)(C(F)(F)F)C(F)(F)F)ccc6o5)cc4)(C(F)(F)F)C(F)(F)F)cc3)nc2c1 (repeat unit)
The glass transition temperature of the first is lower: 328.00 °C for the first, 336.00 °C for the second.

Compared with `*Oc1c(C)cc(*)cc1C(C)CCCCCC` (repeat unit), `*CC(*)OCCCCCC` (repeat unit) [Poly(hexyl vinyl ether)] is lower in glass transition temperature: 54.00 °C for the first, -69.58 ± 5.8 °C for the second.

Compared with `*CCN(CCOC(=O)NCC1(C)CC(NC(=O)O*)CC(C)(C)C1)c1ccc(/N=N/c2ccc([N+](=O)[O-])cc2)cc1` (repeat unit), `*CCN(CCOC(=O)c1ccc(C(=O)O*)c(OCCCCC)c1)c1ccc(/N=N/c2nc(C#N)c(C#N)[nH]2)cc1` (repeat unit) is lower in glass transition temperature: 137.00 °C for the first, 131.00 °C for the second.

Compared with `*Nc1ccc(Cc2ccc(NC(=O)NCCCCCCCCCCCCNC(*)=O)cc2)cc1` (repeat unit), `*CCN(CCOC(=O)Nc1ccc(C)c(NC(=O)O*)c1)c1ccc(/C=C/c2cc[n+](CCCC)cc2)cc1` (repeat unit) is higher in glass transition temperature: 51.00 °C for the first, 121.00 °C for the second.

Compared with `*OC(=O)C(CC(C)C)NC(=O)CCCCC(=O)NC(CC(C)C)C(=O)OC1COC2C(*)COC12` (repeat unit), `*O[Si](*)(C)CCCOc1ccc(C(=O)OC2CCC3(C)C(=CCC4C3CCC3(C)C(C(C)CCCC(C)C)CCC43)C2)cc1S(=O)(=O)[O][K]` (repeat unit) is higher in glass transition temperature: 91.00 °C for the first, 112.60 °C for the second.

Compared with `*c1ccc(OCCCCCCOc2ccc(C3C4C(=O)N(c5ccc(N6C(=O)C7ON(C)C(*)C7C6=O)cc5)C(=O)C4ON3C)cc2)cc1` (repeat unit), `*Oc1ccc(/C=C/C(=O)c2ccc(Oc3ccc(C(C)(C)c4ccc(*)cc4)cc3)cc2)cc1` (repeat unit) is higher in glass transition temperature: 52.00 °C for the first, 152.00 °C for the second.

Going from `*CC(*)(CC(=O)OCCC1CCCCC1)C(=O)OCCC1CCCCC1` (repeat unit) to `*C(=O)OCCOCCOCCOC(=O)c1ccc(N2C(=O)c3ccc(*)cc3C2=O)cc1` (repeat unit), the glass transition temperature rises from 48.00 °C to 63.00 °C.

Going from `*c1ccc(Oc2ccc(-c3c(-c4ccccc4)c4c(c(-c5ccccc5)c3-c3ccccc3)C(=O)N(c3ccc(N5C(=O)c6c(c(-c7ccccc7)c(-c7ccccc7)c(*)c6-c6ccccc6)C5=O)cc3)C4=O)cc2)cc1` (repeat unit) to `*OP(=O)(Oc1ccccc1)OC(CCl)COc1ccc(S(=O)(=O)c2ccc(OCC(*)CCl)cc2)cc1` (repeat unit), the glass transition temperature falls from 371.00 °C to 48.00 °C.

First: *CC(O)COC(=O)CCCCC(=O)OCC(O)COc1ccc(C(=O)Oc2ccc(O*)cc2)cc1 (repeat unit)
Second: *CCOc1ccc(/C=C2\CC/C(=C\c3ccc(OCCOP(=O)(O*)OCC)c(OC)c3)C2=O)cc1OC (repeat unit)
The glass transition temperature of the first is lower: 37.00 °C for the first, 80.00 °C for the second.

First: *c1ccc2nc(*)cc(-c3ccccc3)c2c1 (repeat unit)
Second: *CCCc1nc2cc(-c3ccc4[nH]c(*)nc4c3)ccc2[nH]1 (repeat unit)
The glass transition temperature of the first is higher: 415.00 °C for the first, 275.00 °C for the second.

Going from `*N(C)[Si](C)(C)N(C)[Si](*)(C)CC` (repeat unit) to `*Cc1cccc(CNC(=O)c2cc(C(=O)N*)cc(C(C)(C)C)c2)c1` (repeat unit), the glass transition temperature rises from -20.00 °C to 192.00 °C.
